Bridge positions count the residues as written; N and C are the ends. Square brackets hold non-standard residues; d marks the D form. Peptide text beside a SMILES is read from it. NMeW = CN[C@@H](Cc1c[nH]c2ccccc12)C(=O)O; NMeR = CN[C@@H](CCCNC(=N)N)C(=O)O
Legend:
[1] = biological target: T1, Melanocyte-stimulating hormone receptor (Homo sapiens, UniProt Q01726); assay: Agonist activity at human melanocortin receptor 1 expressed in human T-Rex-293 cells assessed as stimulation of intracellular cAMP accumulation incubated for 45 mins by LANCE cAMP assay; type: functional, cell-based
T1 sequence (Q01726 whole entry): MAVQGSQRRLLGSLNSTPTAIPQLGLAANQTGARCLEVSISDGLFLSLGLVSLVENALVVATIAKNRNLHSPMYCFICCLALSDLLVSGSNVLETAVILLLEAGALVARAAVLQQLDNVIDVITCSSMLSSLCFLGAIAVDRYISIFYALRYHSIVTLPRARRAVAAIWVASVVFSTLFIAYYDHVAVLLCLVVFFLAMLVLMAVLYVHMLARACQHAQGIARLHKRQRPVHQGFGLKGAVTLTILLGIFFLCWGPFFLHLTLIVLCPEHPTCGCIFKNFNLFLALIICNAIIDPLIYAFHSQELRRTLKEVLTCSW

Melanocortin receptor 3 [2] = biological target: T2, Melanocortin receptor 3 (Homo sapiens, UniProt P41968); assay: Agonist activity at human melanocortin receptor 3 expressed in human T-REx-293 cells assessed as stimulation of intracellular cAMP accumulation incubated for 45 mins by LANCE cAMP assay; type: functional, cell-based
T2 sequence (P41968 whole entry): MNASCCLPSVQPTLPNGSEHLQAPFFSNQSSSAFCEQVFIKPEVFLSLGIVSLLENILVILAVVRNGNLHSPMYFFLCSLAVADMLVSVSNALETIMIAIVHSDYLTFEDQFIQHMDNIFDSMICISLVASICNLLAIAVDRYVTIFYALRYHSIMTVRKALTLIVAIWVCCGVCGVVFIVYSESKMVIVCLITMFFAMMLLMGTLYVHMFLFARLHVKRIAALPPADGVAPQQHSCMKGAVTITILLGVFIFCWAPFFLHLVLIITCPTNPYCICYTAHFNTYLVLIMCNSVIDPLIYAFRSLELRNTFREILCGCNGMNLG

Melanocortin receptor 4 [3] = biological target: T3, Melanocortin receptor 4 (Homo sapiens, UniProt P32245); assay: Agonist activity at human melanocortin receptor 4 expressed in human T-REx-293 cells using low doxycycline assessed as stimulation of intracellular cAMP accumulation incubated for 45 mins by LANCE cAMP assay; type: functional, cell-based
T3 sequence (P32245 whole entry): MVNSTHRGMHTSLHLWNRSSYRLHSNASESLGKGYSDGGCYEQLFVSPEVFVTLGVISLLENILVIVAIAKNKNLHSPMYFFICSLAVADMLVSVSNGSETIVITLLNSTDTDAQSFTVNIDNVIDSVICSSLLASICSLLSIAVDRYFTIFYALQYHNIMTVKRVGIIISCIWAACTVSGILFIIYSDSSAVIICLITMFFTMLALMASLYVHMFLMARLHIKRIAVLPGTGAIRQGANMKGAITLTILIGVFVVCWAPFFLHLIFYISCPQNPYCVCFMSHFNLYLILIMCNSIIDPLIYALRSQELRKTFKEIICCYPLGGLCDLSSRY

[4] = biological target: T1, Melanocyte-stimulating hormone receptor; assay: Displacement of [125I]-NDP-alpha-MSH from human MC1R expressed in HEK2936E cell membrane measured after 16-23 hrs by 1450 microbeta trilux scintillation proximity assay; type: cell membranes
Melanocortin receptor 3 [5] = biological target: T2, Melanocortin receptor 3; assay: Displacement of [125I]-NDP-alpha-MSH from human MC3R expressed in HEK2936E cell membrane measured after 16-23 hrs by 1450 microbeta trilux scintillation proximity assay; type: cell membranes
Melanocortin receptor 4 [6] = biological target: T3, Melanocortin receptor 4; assay: Displacement of [125I]-NDP-alpha-MSH from human MC4R expressed in HEK2936E cell membrane measured after 16-23 hrs by 1450 microbeta trilux scintillation proximity assay; type: cell membranes
Melanocortin receptor 5 = Melanocortin receptor 5 (Homo sapiens, UniProt P33032); assay: Displacement of [125I]-NDP-alpha-MSH from human MC5R expressed in HEK2936E cell membrane measured after 16-23 hrs by 1450 microbeta trilux scintillation proximity assay; type: cell membranes
Sequence of Melanocortin receptor 5 (P33032 whole entry): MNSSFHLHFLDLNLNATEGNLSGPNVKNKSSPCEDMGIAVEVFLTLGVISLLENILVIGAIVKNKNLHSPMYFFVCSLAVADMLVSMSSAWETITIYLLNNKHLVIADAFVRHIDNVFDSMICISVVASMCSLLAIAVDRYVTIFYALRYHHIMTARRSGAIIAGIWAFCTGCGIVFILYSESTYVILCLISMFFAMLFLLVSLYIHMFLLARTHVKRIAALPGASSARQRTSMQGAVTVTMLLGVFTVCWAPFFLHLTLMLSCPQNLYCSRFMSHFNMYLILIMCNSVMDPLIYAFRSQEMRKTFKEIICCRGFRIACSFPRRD

Melanocortin receptor 4 [7] = biological target: T3, Melanocortin receptor 4; assay: Agonist activity at human melanocortin receptor 4 expressed in human T-REx-293 cells using high doxycycline assessed as stimulation of intracellular cAMP accumulation incubated for 45 mins by LANCE cAMP assay; type: functional

Structure (SMILES)	EC50 [1]	EC50 (Melanocortin receptor 3 [2])	EC50 (Melanocortin receptor 4 [3])	Ki [4]	Ki (Melanocortin receptor 3 [5])	Ki (Melanocortin receptor 4 [6])	IC50 (Melanocortin receptor 5)	EC50 (Melanocortin receptor 4 [7])
CC[C@H](C)[C@@H]1NC(=O)[C@@H]2CCCN2C(=O)[C@H](Cc2c[nH]c3ccccc23)NC(=O)[C@H](CCCNC(=N)N)N(C)C(=O)[C@@H](Cc2ccccc2)NC(=O)[C@H](Cc2c[nH]cn2)NC(=O)[C@H]([C@@H](C)O)NC(=O)[C@@H]2CSSC[C@H](NC1=O)C(=O)N[C@@H](Cc1c[nH]cn1)C(=O)N[C@H](Cc1ccccc1)C(=O)N[C@@H](CCCNC(=N)N)C(=O)N[C@@H](Cc1ccc3ccccc3c1)C(=O)N[C@@H](C)C(=O)N2	> 0.0501 nM	2.19 nM	2.69 nM	0.724 nM	50.1 nM	8.13 nM	89.1 nM	0.275 nM
CC[C@H](C)[C@@H]1NC(=O)[C@H](C)NC(=O)[C@H](Cc2c[nH]c3ccccc23)NC(=O)[C@H](CCCNC(=N)N)N(C)C(=O)[C@@H](Cc2ccccc2)NC(=O)[C@H](Cc2c[nH]cn2)NC(=O)[C@H]([C@@H](C)O)NC(=O)[C@@H]2CSSC[C@H](NC1=O)C(=O)N[C@@H](Cc1c[nH]cn1)C(=O)N[C@H](Cc1ccccc1)C(=O)N[C@@H](CCCNC(=N)N)C(=O)N[C@@H](Cc1c[nH]c3ccccc13)C(=O)N[C@@H](C)C(=O)N2	0.0912 nM	1.15 nM	1.23 nM	1.41 nM	107 nM	25.7 nM	170 nM	0.132 nM
CN1C(=O)[C@@H](Cc2ccccc2)NC(=O)[C@H](Cc2c[nH]cn2)NC(=O)CNC(=O)[C@@H]2CSSC[C@H](NC(=O)[C@H](CCCNC(=N)N)NC(=O)[C@@H](CC(=O)O)NC(=O)[C@H](Cc3c[nH]c4ccccc34)NC(=O)[C@@H]1CCCNC(=N)N)C(=O)N[C@@H](Cc1c[nH]cn1)C(=O)N[C@H](Cc1ccccc1)C(=O)N(C)[C@@H](CCCNC(=N)N)C(=O)N(C)[C@@H](Cc1c[nH]c3ccccc13)C(=O)N[C@@H](CCCNC(=N)N)C(=O)N2	0.813 nM	24 nM	490 nM	4.9 nM	148 nM	158 nM	1510 nM	10.5 nM
CC[C@H](C)[C@@H]1NC(=O)[C@@H]2CCCN2C(=O)[C@H](Cc2c[nH]c3ccccc23)N(C)C(=O)[C@H](CCCNC(=N)N)NC(=O)[C@@H](Cc2ccccc2)NC(=O)[C@H](Cc2cnc[nH]2)NC(=O)[C@H]([C@@H](C)O)NC(=O)[C@@H]2CSSC[C@H](NC1=O)C(=O)N[C@@H](Cc1ccccc1)C(=O)N1CCC[C@H]1C(=O)N[C@@H](CC(=O)O)C(=O)NCC(=O)N[C@@H](CCCNC(=N)N)C(=O)N2 (cyclo(CFPDGRCTH[dF]R[NMeW]PI); disulfide 1-7)	64.6 nM	282 nM	46.8 nM	339 nM	> 1000 nM	617 nM	1000 nM	3.09 nM
CC[C@H](C)[C@@H]1NC(=O)[C@@H]2CCCN2C(=O)[C@H](Cc2c[nH]c3ccccc23)NC(=O)[C@H](CCCNC(=N)N)N(C)C(=O)[C@@H](Cc2ccccc2)NC(=O)[C@H](Cc2c[nH]cn2)NC(=O)[C@H]([C@@H](C)O)NC(=O)[C@@H]2CSSC[C@H](NC1=O)C(=O)N[C@@H](Cc1c[nH]cn1)C(=O)N[C@H](Cc1ccccc1)C(=O)N[C@@H](CCCNC(=N)N)C(=O)N[C@@H](Cc1c[nH]c3ccccc13)C(=O)N[C@@H](C)C(=O)N2	0.0562 nM	1.45 nM	2.04 nM	0.912 nM	85.1 nM	13.5 nM	200 nM	0.178 nM
CC(=O)N[C@H]1CSSC[C@@H](C(N)=O)NC(=O)[C@H](CCCNC(=N)N)NC(=O)[C@H](Cc2c[nH]c3ccccc23)N(C)C(=O)[C@H](CCCNC(=N)N)N(C)C(=O)[C@H](Cc2ccccc2)NC(=O)[C@H](Cc2c[nH]cn2)NC1=O (Ac-CHF[NMeR][NMeW]RC-NH2; disulfide 1-7)	5.5 nM	398 nM	3630 nM	56.2 nM	3160 nM	2040 nM	10000 nM	63.1 nM
CC[C@H](C)[C@@H]1NC(=O)[C@@H]2CCCN2C(=O)[C@H](Cc2c[nH]c3ccccc23)NC(=O)[C@H](CCCNC(=N)N)N(C)C(=O)[C@@H](Cc2ccccc2)NC(=O)[C@H](Cc2c[nH]cn2)NC(=O)[C@H]([C@@H](C)O)NC(=O)[C@@H]2CSSC[C@H](NC1=O)C(=O)N[C@@H](Cc1c[nH]cn1)C(=O)N[C@@H](C)C(=O)N[C@@H](CCCNC(=N)N)C(=O)N[C@@H](Cc1c[nH]c3ccccc13)C(=O)N[C@@H](CCCNC(=N)N)C(=O)N2	0.794 nM	6.61 nM	3.47 nM	2.82 nM	389 nM	10.7 nM	676 nM	0.302 nM
CC[C@H](C)[C@@H]1NC(=O)[C@@H]2CCCN2C(=O)[C@H](Cc2c[nH]c3ccccc23)NC(=O)[C@H](CCC(=O)O)NC(=O)[C@@H](Cc2ccccc2)NC(=O)[C@H](Cc2c[nH]cn2)NC(=O)[C@H]([C@@H](C)O)NC(=O)[C@@H]2CSSC[C@H](NC1=O)C(=O)N[C@@H](Cc1c[nH]cn1)C(=O)N[C@H](Cc1ccccc1)C(=O)N(C)[C@@H](CCCNC(=N)N)C(=O)N(C)[C@@H](Cc1c[nH]c3ccccc13)C(=O)N[C@@H](CCCNC(=N)N)C(=O)N2	0.141 nM	72.4 nM	398 nM	1.29 nM	1740 nM	589 nM	3090 nM	22.9 nM
CC[C@H](C)[C@@H]1NC(=O)[C@@H]2CCCN2C(=O)[C@H](Cc2c[nH]c3ccccc23)NC(=O)[C@H](CCCNC(=N)N)N(C)C(=O)[C@@H](Cc2ccccc2)NC(=O)[C@H](Cc2c[nH]cn2)NC(=O)[C@H]([C@@H](C)O)NC(=O)[C@@H]2CSSC[C@H](NC1=O)C(=O)N[C@@H](Cc1c[nH]cn1)C(=O)N[C@H](Cc1ccccc1)C(=O)N[C@@H](CCC(=O)O)C(=O)N[C@@H](Cc1c[nH]c3ccccc13)C(=O)N[C@@H](CCCNC(=N)N)C(=O)N2	3.63 nM	95.5 nM	105 nM	41.7 nM	5010 nM	309 nM	2690 nM	3.89 nM
CC[C@H](C)[C@@H]1NC(=O)[C@@H]2CCCN2C(=O)[C@H](Cc2c[nH]c3ccccc23)NC(=O)[C@H](CCCNC(=N)N)N(C)C(=O)[C@@H](Cc2ccccc2)NC(=O)[C@H](Cc2c[nH]cn2)NC(=O)[C@H]([C@@H](C)O)NC(=O)[C@@H]2CSSC[C@H](NC1=O)C(=O)N[C@@H](Cc1c[nH]cn1)C(=O)N[C@H](Cc1ccccc1)C(=O)N[C@@H](C)C(=O)N[C@@H](Cc1c[nH]c3ccccc13)C(=O)N[C@@H](CCCNC(=N)N)C(=O)N2	2.24 nM	56.2 nM	44.7 nM	15.1 nM	1150 nM	91.2 nM	589 nM	2.19 nM
CC[C@H](C)[C@@H]1NC(=O)[C@@H]2CCCN2C(=O)[C@H](Cc2c[nH]c3ccccc23)NC(=O)[C@H](CCCNC(=N)N)N(C)C(=O)[C@@H](Cc2ccc3ccccc3c2)NC(=O)[C@@H]2CCCN2C(=O)[C@H](Cc2c[nH]c3ccccc23)NC(=O)[C@@H]2CSSC[C@H](NC1=O)C(=O)N[C@@H](Cc1c[nH]cn1)C(=O)N[C@H](Cc1ccccc1)C(=O)N[C@@H](CCCNC(=N)N)C(=O)N[C@@H](Cc1c[nH]c3ccccc13)C(=O)N[C@@H](C)C(=O)N2	1.55 nM	13.5 nM	31.6 nM	9.77 nM	407 nM	7.94 nM	204 nM	1.05 nM
CC[C@H](C)[C@@H]1NC(=O)[C@@H]2CCCN2C(=O)[C@H](Cc2c[nH]c3ccccc23)NC(=O)[C@H](CCCNC(=N)N)N(C)C(=O)[C@@H](Cc2ccccc2)NC(=O)[C@H](Cc2c[nH]cn2)NC(=O)[C@H](CC(=O)O)NC(=O)[C@@H]2CSSC[C@H](NC1=O)C(=O)N[C@@H](Cc1c[nH]cn1)C(=O)N[C@H](Cc1ccccc1)C(=O)N(C)[C@@H](CCCNC(=N)N)C(=O)N(C)[C@@H](Cc1c[nH]c3ccccc13)C(=O)N[C@@H](Cc1ccc(O)cc1)C(=O)N2	0.0646 nM	18.2 nM	85.1 nM	0.708 nM	891 nM	355 nM	1230 nM	4.27 nM

— ChEMBL document CHEMBL5034014, “Melanocortin 1 Receptor Agonists Based on a Bivalent, Bicyclic Peptide Framework” (J Med Chem, 2021)
